# Source: ChEMBL document CHEMBL4706705 (Bioorg Med Chem, 2021)
# The source made the active and inactive calls. No cut-off for these calls is given here.
# What was measured:
# Mus musculus [1] = experiment: In vivo inhibition of EGFR T790M/L858R double mutant in nude mouse xenografted with human NCI-H1975 cells assessed as reduction in EGFR phosphorylation at 5 mg, ig measured after 6 hrs by Western blot analysis; type: functional, organism-based
# NCI-H1975 [2] = experiment: Antiproliferative activity against human NCI-H1975 cells harboring EGFR L858R/T790M double mutant measured after 72 hrs by celltiter-glo assay; type: functional, cell-based; conditions: NCI-H1975, 72 h
# [3] = molecular target: Epidermal growth factor receptor (Homo sapiens, UniProt P00533); experiment: Inhibition of wild-type EGFR (unknown origin) using biotinylated TK peptide as substrate measured after 30 mins by HTRF assay
# Epidermal growth factor receptor (Homo sapiens, UniProt P00533), sequence (P00533 whole entry): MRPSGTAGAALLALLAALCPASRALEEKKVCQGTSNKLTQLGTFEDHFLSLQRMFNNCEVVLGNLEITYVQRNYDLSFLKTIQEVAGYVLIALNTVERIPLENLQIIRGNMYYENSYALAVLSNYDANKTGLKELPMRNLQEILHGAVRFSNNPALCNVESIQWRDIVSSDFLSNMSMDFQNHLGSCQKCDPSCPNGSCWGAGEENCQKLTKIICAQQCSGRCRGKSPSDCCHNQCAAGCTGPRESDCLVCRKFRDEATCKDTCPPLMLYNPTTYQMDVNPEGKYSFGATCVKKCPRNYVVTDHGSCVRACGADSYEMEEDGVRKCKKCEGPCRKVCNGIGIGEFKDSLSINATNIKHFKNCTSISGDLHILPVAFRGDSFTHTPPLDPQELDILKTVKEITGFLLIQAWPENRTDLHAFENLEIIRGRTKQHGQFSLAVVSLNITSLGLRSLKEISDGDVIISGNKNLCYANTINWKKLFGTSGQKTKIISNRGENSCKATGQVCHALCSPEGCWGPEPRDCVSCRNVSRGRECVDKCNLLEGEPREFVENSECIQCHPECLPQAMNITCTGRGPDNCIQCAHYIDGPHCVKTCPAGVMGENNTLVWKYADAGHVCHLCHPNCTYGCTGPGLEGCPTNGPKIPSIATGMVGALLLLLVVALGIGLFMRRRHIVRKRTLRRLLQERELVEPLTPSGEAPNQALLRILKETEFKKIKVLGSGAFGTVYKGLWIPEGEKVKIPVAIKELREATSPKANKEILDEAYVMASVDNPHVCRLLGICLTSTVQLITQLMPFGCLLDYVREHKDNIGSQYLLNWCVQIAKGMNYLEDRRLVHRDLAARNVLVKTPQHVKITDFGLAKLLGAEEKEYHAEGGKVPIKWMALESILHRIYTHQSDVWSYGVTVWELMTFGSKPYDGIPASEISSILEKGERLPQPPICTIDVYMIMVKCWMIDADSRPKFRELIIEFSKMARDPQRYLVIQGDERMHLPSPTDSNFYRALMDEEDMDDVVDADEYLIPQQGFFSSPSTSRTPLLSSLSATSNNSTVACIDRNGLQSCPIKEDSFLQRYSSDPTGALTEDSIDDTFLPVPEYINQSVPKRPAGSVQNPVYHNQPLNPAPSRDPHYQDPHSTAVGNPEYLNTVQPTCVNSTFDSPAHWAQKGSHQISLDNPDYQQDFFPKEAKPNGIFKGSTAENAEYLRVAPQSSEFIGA
# [4] = molecular target: Epidermal growth factor receptor (Homo sapiens, UniProt P00533, L858R/T790M); experiment: Inhibition of recombinant human N-terminal GST-tagged EGFR T790M/L858R double mutant using biotinylated TK peptide as substrate measured after 30 mins by HTRF assay
# Epidermal growth factor receptor (Homo sapiens, UniProt P00533, L858R/T790M), sequence (P00533 25-1210 T790M/L858R limits assumed): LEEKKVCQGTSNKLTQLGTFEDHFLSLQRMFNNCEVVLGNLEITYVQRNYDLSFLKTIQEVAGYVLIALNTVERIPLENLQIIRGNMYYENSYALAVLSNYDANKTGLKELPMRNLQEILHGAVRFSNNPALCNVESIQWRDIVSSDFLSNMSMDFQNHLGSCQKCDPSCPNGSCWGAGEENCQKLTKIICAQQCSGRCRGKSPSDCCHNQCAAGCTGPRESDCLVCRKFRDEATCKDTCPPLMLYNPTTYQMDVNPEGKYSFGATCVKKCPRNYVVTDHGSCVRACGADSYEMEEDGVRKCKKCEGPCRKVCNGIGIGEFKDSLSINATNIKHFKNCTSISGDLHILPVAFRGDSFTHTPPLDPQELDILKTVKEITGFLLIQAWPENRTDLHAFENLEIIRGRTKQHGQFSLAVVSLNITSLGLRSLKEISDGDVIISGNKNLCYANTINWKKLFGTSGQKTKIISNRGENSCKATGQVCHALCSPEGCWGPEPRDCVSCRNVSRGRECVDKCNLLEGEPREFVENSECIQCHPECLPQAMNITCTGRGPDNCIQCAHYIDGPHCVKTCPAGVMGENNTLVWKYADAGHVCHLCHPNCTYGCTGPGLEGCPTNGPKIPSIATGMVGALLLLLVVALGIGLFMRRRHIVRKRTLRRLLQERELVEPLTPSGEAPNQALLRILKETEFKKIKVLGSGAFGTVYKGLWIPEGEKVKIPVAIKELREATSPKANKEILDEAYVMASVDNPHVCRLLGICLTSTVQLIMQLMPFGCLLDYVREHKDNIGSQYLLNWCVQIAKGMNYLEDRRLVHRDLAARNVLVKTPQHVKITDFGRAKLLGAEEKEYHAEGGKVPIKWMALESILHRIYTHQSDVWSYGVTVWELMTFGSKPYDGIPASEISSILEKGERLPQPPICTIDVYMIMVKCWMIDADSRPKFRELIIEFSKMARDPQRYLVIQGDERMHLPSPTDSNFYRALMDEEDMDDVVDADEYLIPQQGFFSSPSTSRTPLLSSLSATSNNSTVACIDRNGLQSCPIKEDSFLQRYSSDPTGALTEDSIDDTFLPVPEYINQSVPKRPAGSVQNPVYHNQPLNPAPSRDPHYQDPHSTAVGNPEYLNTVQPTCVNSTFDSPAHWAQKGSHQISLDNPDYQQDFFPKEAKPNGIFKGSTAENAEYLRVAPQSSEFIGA
# Mus musculus [5] = experiment: In vivo inhibition of EGFR T790M/L858R double mutant in nude mouse xenografted with human NCI-H1975 cells assessed as reduction in AKT phosphorylation at 5 mg, ig measured after 6 hrs by Western blot analysis; type: functional, organism-based
# A-431 = experiment: Cytotoxicity against human A-431 cells harboring wild-type EGFR measured after 72 hrs by celltiter-glo assay; type: cell-based; conditions: A-431, 72 h
# [6] = Drug metabolism in rat assessed as N-(4-methoxy-2-(methyl(2-(methylamino)ethyl)amino)-5-(4-(1-methyl-1H-indol-3-yl)pyrimidin-2-ylamino)phenyl)acrylamide formation at 5 mg/kg, po by LC-MS analysis; type: ADME, organism-based; conditions: in vivo
# [7] = Half life in rat at 5 mg/kg, po by LC-MS analysis; type: ADME, organism-based; conditions: in vivo
# [8] = MRT (0 to infinity) in rat assessed as N-(5-(4-(1H-indol-3-yl)pyrimidin-2-ylamino)-2-((2-(dimethylamino)ethyl)(methyl)amino)-4-methoxyphenyl)acrylamide level at 5 mg/kg, po by LC-MS analysis; type: ADME, organism-based; conditions: in vivo
# NCI-H1975 [9] = experiment: Antitumor activity against human NCI-H1975 cells harboring EGFR L858R/T790M double mutant xenografted in BALB/c nude mouse assessed as tumor growth inhibition at 5 mg/kg, po administered once daily for 11 days relative to control; type: functional; conditions: time 11 day
# [10] = Tmax in rat assessed as N-(5-(4-(1H-indol-3-yl)pyrimidin-2-ylamino)-2-((2-(dimethylamino)ethyl)(methyl)amino)-4-methoxyphenyl)acrylamide level at 5 mg/kg, po by LC-MS analysis; type: ADME, organism-based; conditions: in vivo
# [11] = MRT (0 to infinity) in rat at 5 mg/kg, po by LC-MS analysis; type: ADME, organism-based; conditions: in vivo
# Mus musculus [12] = experiment: In vivo inhibition of EGFR T790M/L858R double mutant in nude mouse xenografted with human NCI-H1975 cells assessed as reduction in ERK phosphorylation at 5 mg, ig measured after 6 hrs by Western blot analysis; type: functional, organism-based
# [13] = Cmax in rat assessed as N-(5-(4-(1H-indol-3-yl)pyrimidin-2-ylamino)-2-((2-(dimethylamino)ethyl)(methyl)amino)-4-methoxyphenyl)acrylamide level at 5 mg/kg, po by LC-MS analysis; type: ADME, organism-based; set-up: route oral, dose 5 mg/kg; conditions: in vivo
# [14] = Tmax in rat at 5 mg/kg, po by LC-MS analysis; type: ADME, organism-based; conditions: in vivo
# [15] = Cmax in rat at 5 mg/kg, po by LC-MS analysis; type: ADME, organism-based; set-up: route oral, dose 5 mg/kg; conditions: in vivo
# [16] = Oral bioavailability in rat at 5 mg/kg by LC-MS analysis; type: ADME, organism-based; conditions: in vivo
# [17] = Drug level in rat treated with osimertinib at 5 mg/kg, po by LC-MS analysis; type: ADME, organism-based; conditions: in vivo
# [18] = Drug level in rat treated with N-(5-(4-(1-cyclopropyl-1H-indol-3-yl)pyrimidin-2-ylamino)-2-((2-(dimethylamino)ethyl)(methyl)amino)-4-methoxyphenyl)acrylamide at 5 mg/kg, po by LC-MS analysis; type: ADME, organism-based; conditions: in vivo
# [19] = AUC (0 to 8 hrs) in rat at 5 mg/kg, po by LC-MS analysis; type: ADME, organism-based; set-up: time < 8 hr, route oral, dose 5 mg/kg; conditions: in vivo
# [20] = AUC (0 to 8 hrs) in rat assessed as N-(5-(4-(1-cyclopropyl-1H-indol-3-yl)pyrimidin-2-ylamino)-4-methoxy-2-(methyl(2-(methylamino)ethyl)amino)phenyl)acrylamide level at 5 mg/kg, po by LC-MS analysis; type: ADME, organism-based; set-up: time < 8 hr, route oral, dose 5 mg/kg; conditions: in vivo
# NCI-H1975 [21] = experiment: Potency index, ratio of osimertinib IC50 to test compound IC50 for antiproliferative activity against human NCI-H1975 cells harboring EGFR L858R/T790M double mutant; type: functional
# [22] = Cmax in rat assessed as N-(5-(4-(1-cyclopropyl-1H-indol-3-yl)pyrimidin-2-ylamino)-4-methoxy-2-(methyl(2-(methylamino)ethyl)amino)phenyl)acrylamide level at 5 mg/kg, po by LC-MS analysis; type: ADME, organism-based; set-up: route oral, dose 5 mg/kg; conditions: in vivo
# [23] = Tmax in rat assessed as N-(5-(4-(1-cyclopropyl-1H-indol-3-yl)pyrimidin-2-ylamino)-4-methoxy-2-(methyl(2-(methylamino)ethyl)amino)phenyl)acrylamide level at 5 mg/kg, po by LC-MS analysis; type: ADME, organism-based; conditions: in vivo
# [24] = AUC (0 to infinity) in rat at 5 mg/kg, po by LC-MS analysis; type: ADME, organism-based; set-up: time infinity, route oral, dose 5 mg/kg; conditions: in vivo
# [25] = Toxicity in BALB/c nude mouse xenografted with human NCI-H1975 cells harboring EGFR T790M/L858R double mutant assessed as effect on body weight at 5 mg/kg, po administered once daily for 11 days measured twice daily during compound dosing; type: organism-based; conditions: in vivo, 264 h, time 11 day
structure (smiles),measurement,setting,value
C=CCn1cc(-c2ccnc(Nc3cc(NC(=O)C=C)c(N(C)CCN(C)C)cc3OC)n2)c2ccccc21,inhibition,Mus musculus [1],Active
same,IC50,NCI-H1975 [2],34 nM
same,IC50,[3],15.4 nM
same,IC50,[4],1.51 nM
same,inhibition,Mus musculus [5],Active
C#CCn1cc(-c2ccnc(Nc3cc(NC(=O)C=C)c(N(C)CCN(C)C)cc3OC)n2)c2ccccc21,IC50,NCI-H1975 [2],6.22 nM
same,IC50,A-431,690 nM
same,IC50,[4],1.01 nM
C=CC(=O)Nc1cc(Nc2nccc(-c3cn(C)c4ccccc34)n2)c(OC)cc1N(C)CCN(C)C [OSIMERTINIB],Drug metabolism,[6],Metabolite_Detected
same,half-life,[7],324 min
same,MRT,[8],14.1 h
same,inhibition,Mus musculus [1],Active
same,TGI,NCI-H1975 [9],70%
same,Tmax,[10],6 h
same,inhibition,Mus musculus [5],Active
same,MRT inf,[11],9 h
same,inhibition,Mus musculus [12],Active
same,Cmax,[13],48.3 ng/mL
same,Tmax,[14],1 h
same,Cmax,[15],81.4 ng/mL
same,bioavailability,[16],9%
C=CC(=O)Nc1cc(Nc2nccc(-c3c[nH]c4ccccc34)n2)c(OC)cc1N(C)CCN(C)C,Drug uptake,[17],Active
C=CC(=O)Nc1cc(Nc2nccc(-c3cn(C)c4ccccc34)n2)c(OC)cc1N(C)CCNC,Drug uptake,[17],Active
C=CC(=O)Nc1cc(Nc2nccc(-c3cn(C4CC4)c4ccccc34)n2)c(OC)cc1N(C)CCNC,Drug uptake,[18],Active
C=CC(=O)Nc1cc(Nc2ncc(C(F)(F)F)c(-c3cn(C4COC4)c4ccccc34)n2)c(OC)cc1N(C)CCN(C)C,inhibition,Mus musculus [1],Active
C=CC(=O)Nc1cc(Nc2nccc(-c3cn(C(C)=O)c4ccccc34)n2)c(OC)cc1N(C)CCN(C)C,IC50,NCI-H1975 [2],15.8 nM
same,IC50,A-431,192 nM
same,IC50,[3],15.5 nM
same,IC50,[4],2.09 nM
C=CC(=O)Nc1cc(Nc2ncc(C(F)(F)F)c(-c3cn(C4CC4)c4ccccc34)n2)c(OC)cc1N(C)CCN(C)C,inhibition,Mus musculus [1],Active
same,IC50,NCI-H1975 [2],8.15 nM
same,IC50,A-431,59 nM
C=CC(=O)Nc1cc(Nc2nccc(-c3cn(CCO)c4ccccc34)n2)c(OC)cc1N(C)CCN(C)C,IC50,NCI-H1975 [2],2.2 nM
same,IC50,A-431,208 nM
same,IC50,[3],1.54 nM
same,IC50,[4],0.86 nM
C=CC(=O)Nc1cc(Nc2nccc(-c3cn(C4COC4)c4ccccc34)n2)c(OC)cc1N(C)CCN(C)C,IC50,A-431,84.3 nM
C=CC(=O)Nc1cc(Nc2nccc(-c3cn(C4CC4)c4ccccc34)n2)c(OC)cc1N(C)CCN(C)C [AUMOLERTINIB],half-life,[7],420 min
same,AUC(0-t) at 8 h,[19],4580 ng·h/mL
same,inhibition,Mus musculus [1],Active
same,IC50,NCI-H1975 [2],1.44 nM
same,IC50,A-431,209 nM
same,IC50,[3],2.89 nM
same,IC50,[4],0.18 nM
same,inhibition in vivo at 5 mg/kg,"NCI-H1975 [9]; Mus musculus, NCI-H1975, po, 264 h, read-out: TGI",83%
same,AUC,[20],2062 ng·h/mL
same,inhibition,Mus musculus [5],Active
same,MRT inf,[11],9.2 h
same,inhibition,Mus musculus [12],Active
same,Ratio IC50,NCI-H1975 [21],10
same,Tmax,[14],1 h
same,Cmax,[15],528 ng/mL
same,Cmax,[22],126 ng/mL
same,Tmax,[23],6 h
same,AUC(0-inf),[24],5150 ng·h/mL
same,Activity,[25],Non-Toxic
same,bioavailability,[16],52%
